{"source": "patent US20070259375A1", "about": "“Biomarkers and Methods for Determining Sensitivity to Epidermal Growth Factor Receptor Modulators in Non-Small Cell Lung Cancer” (Bristol-Myers Squibb Company, priority 2004, published 2007)", "key": {"[1]": {"test_system": "H522", "assay": "Relative drug sensitivity in NSCLC cell lines, BrdU Cell Proliferation ELISA", "format": "cell-based, human", "settings": "H522 cell line, EGFR negative", "protocol": "(§1) The NSCLC cell lines were grown using standard cell culture conditions: DMEM supplemented to contain 10% fetal bovine serum, 100 IU/ml penicillin, […] streptomycin and 2 mM L-glutamine (all from Invitrogen Life Technologies, Carlsbad, Calif.). […] Cytotoxicity was assessed in cells by BrdU Cell Proliferation calorimetric ELISA (Roche Applied Science, Indianapolis, Ind.). This is a calorimetric immunoassay for the quantification of cell proliferation based on the measurement of BrdU incorporation during DNA synthesis. To carry out the assays, the NSCLC cells were plated at 2500-5000 cells/well in 96 well microtiter plates and 24 hours later diluted monoclonal antibody drug was added. […] The cells were incubated at 37° C. for 48 hours at which time the BrdU labeling reagent was added. After two hours the labeling medium was removed and cells were fixed and the DNA was denatured using a FixDenat solution. The anti-BrdU antibody conjugated with peroxidase was added and immune complexes were detected by the subsequent substrate reaction. The reaction product was quantified by measuring the absorbance of the samples in an ELISA reader at […]. The greater the absorbency, the greater the number of live cells. […] Three to six independent BrdU assays were performed for each cell line."}, "[2]": {"test_system": "ChagoK1", "assay": "Relative drug sensitivity in NSCLC cell lines, BrdU Cell Proliferation ELISA", "format": "cell-based, human", "settings": "ChagoK1 cell line", "protocol": "as §1"}, "[3]": {"test_system": "H226", "assay": "Relative drug sensitivity in NSCLC cell lines, BrdU Cell Proliferation ELISA", "format": "cell-based, human", "settings": "H226 cell line, EGFR+", "protocol": "as §1"}, "[4]": {"test_system": "L2987", "assay": "Relative drug sensitivity in NSCLC cell lines, BrdU Cell Proliferation ELISA", "format": "cell-based, human", "settings": "L2987 cell line", "protocol": "as §1"}, "[5]": {"test_system": "A549", "assay": "Relative drug sensitivity in NSCLC cell lines, BrdU Cell Proliferation ELISA", "format": "cell-based, human", "settings": "A549 cell line, EGFR+", "protocol": "as §1"}, "[6]": {"test_system": "LX1", "assay": "Relative drug sensitivity in NSCLC cell lines, BrdU Cell Proliferation ELISA", "format": "cell-based, human", "settings": "LX1 (LX-1) cell line, EGFR negative", "protocol": "as §1"}, "[7]": {"test_system": "L2987 lung xenograft", "assay": "In vivo antitumor testing, lung xenograft model", "settings": "nude mice", "protocol": "(§2) Tumors were propagated in nude mice as subcutaneous (sc) transplants using tumor fragments obtained from donor mice. Tumor passage occurred approximately every two to four weeks. Tumors were then allowed to grow to the pre-determined size window (usually between 100-200 mg, tumors outside the range were excluded) and animals were evenly distributed to various treatment and control groups. […] Treated animals were checked daily for treatment related toxicity/mortality. Each group of animals was weighed before the initiation of treatment (Wt1) and then again following the last treatment dose (Wt2). The difference in body weight (Wt2-Wt1) provided a measure of treatment-related toxicity. Tumor response was determined by measurement of tumors with a caliper twice a week, until the tumors reached a predetermined target size of 1 gm or became necrotic. Tumor weights (mg) were estimated from the formula: Tumor weight=(length×width^2)/2 Antitumor activity was determined in terms of primary tumor growth inhibition. This was determined in two ways: (i) calculating the relative median tumor weight (MTW) of treated (T) and control (C) mice at various time points (effects were expressed as % T/C); and (ii) calculating the tumor growth delay (T-C value), defined as the difference in time (days) required for the treated tumors (T) to reach a predetermined target size compared to those of the control group (C). Statistical evaluations of data were performed using Gehan's generalized Wilcoxon test for comparisons of time to reach tumor target size (Gehan 1965). Statistical significance was declared at p<0.05. Antitumor activity was defined as a continuous MTW % T/C≦50% for at least 1 tumor volume doubling time (TVDT) any time after the start of treatment, where TVDT (tumor volume doubling time)=median time (days) for control tumors to reach target size−median time (days) for control tumors to reach half the target size.\n(§3) Treated animals were checked daily for treatment related toxicity/mortality."}, "[8]": {"test_system": "LX1 lung xenograft", "assay": "In vivo antitumor testing, lung xenograft model", "settings": "nude mice", "protocol": "as §2, §3"}, "[9]": {"test_system": "A549 lung xenograft", "assay": "In vivo antitumor testing, lung xenograft model", "settings": "nude mice", "protocol": "as §2, §3"}}}
{"smiles": "COc1cc2ncnc(Nc3ccc(F)c(Cl)c3)c2cc1OCCCN1CCOCC1", "note": "[gefitinib]", "values": [{"measurement": "resistance/sensitivity classification", "setting": "[1]", "value": "resistant"}, {"measurement": "resistance/sensitivity classification", "setting": "[2]", "value": "sensitive"}, {"measurement": "resistance/sensitivity classification", "setting": "[3]", "value": "resistant"}, {"measurement": "resistance/sensitivity classification", "setting": "[4]", "value": "resistant"}, {"measurement": "resistance/sensitivity classification", "setting": "[5]", "value": "resistant"}, {"measurement": "resistance/sensitivity classification", "setting": "[6]", "value": "resistant"}, {"measurement": "sensitivity of lung xenograft model", "setting": "[7]", "value": "sensitive"}, {"measurement": "sensitivity of lung xenograft model", "setting": "[8]", "value": "resistant"}, {"measurement": "sensitivity of lung xenograft model", "setting": "[9]", "value": "borderline sensitive"}]}
